# Reference: US20140011772A1, “COMPOSITIONS AND METHODS FOR TREATING CONDITIONS ASSOCIATED WITH NEURONAL DYSFUNCTION” (NORTHWESTERN UNIVERSITY, priority 2009, published 2014)
# “Also recorded” adds a separate entry of the source.
# How the values were obtained:
# [1] = tested on: CA1 hippocampal pyramidal neurons; test: Whole cell current-clamp recordings, firing upon depolarizing current injection; type: cell-based, rat; conditions: FFA 0.2 mM
# Method: (A) Current clamp recordings obtained (at 32-33° C.) from a CA1 hippocampal neuron in response to depolarizing current injection (150 pA, 1 s, bottom) in control (top trace) and in the presence of FFA (200 μM, middle). (B) Firing frequency in response to a series of current injections (1 s, 30 pA steps) in control and in FFA.
# (§1) Electrophysiological recordings: Slices were visualized with an Axioskop 2FS (Zeiss) upright microscope with a water-immersion 60× objective (0.9 NA, Olympus). For whole cell current-clamp recordings, the bath solution contained kynurenic acid (2 mM) and picrotoxin (0.1 mM) to block fast synaptic transmission, and pipettes were filled with internal solution consisting of: 140K-gluconate, 8 mM NaCl, 2 mM MgCl2, 1 mM EGTA, 2 mM Na2ATP 2, 0.1 mM NaGTP, 10 mM HEPES, pH 7.3 with KOH.
# The effect of FFA on burst and tonic firing of hippocampal pyramidal neurons was examined during development of embodiments of the present invention (FIG. 13). Recordings were obtained in the presence of kynurenic acid (2 mM) and picrotoxin (0.1 mM) to block fast synaptic transmission. […] For a 150 pA depolarizing current pulse the firing frequency decreased from 21.7±1.82 Hz in control conditions to 1.87±0.61 Hz in FFA (FIG. 13A,B).
# [2] = tested on: CA1 pyramidal neurons in 4-AP bathed slices; test: 4-AP induced burst firing, whole-cell current clamp in 4-AP bathed slices; type: cell-based, rat
# Method: The trace segments between dashed lines are shown on an expanded time scale (insets) to resolve bursts. (B) Firing frequency in response to depolarizing current injections. (C) Interspike interval ratio (ISI) against different current injections. For each current step, the ISI ratio was obtained dividing the interval between the first two spikes by the mean interspike interval. Recordings were obtained at 24-25° C.
# as §1
# Experiments were conducted during development of embodiments of the present invention to examine the inhibitory effect of FFA on burst firing. All CA1 pyramidal cells show robust burst firing in the presence of 4-Aminopyridine (4-AP), a potassium channel blocker. Whole-cell current clamp recordings were obtained from CA1 pyramidal neurons in 4-AP bathed slices. These recordings were also performed at 32-33° C. and in the presence of kynurenic acid and picrotoxin.
# SNI rats = test: Von Frey pain thresholds in the spared nerve injury (SNI) model of chronic neuropathic pain; type: in vivo, rat; conditions: for analgesic effect: 10 mg/kg in ethanol, oral; for analgesic effect / effect on pain threshold: 10 mg/kg; for effect on pain threshold: 10 mg/kg oral, both paws / non-operative paw
# Method: Von Frey thresholds (a standard measure of pain sensitivity) were measured on the operated paw (left panel) and on the contralateral paw (right panel) in adult rats. 4 animals received the drug (10 mg/kg oral administration), and 4 animals the vehicle only. […] Note the fast onset of the effect, which may be very important for clinical use.
# Chronic pain constitutes a primary reason driving people to seek health care. Pain was has been described as “epidemic” by the American Academy of Pain Management (American Pain Society, 1999): 50 million Americans are partially or totally disabled by pain. […] In particular, the spared nerve injury model (SNI), a reliable animal model of chronic neuropathic pain, was used to test the effect of oral administration of FFA. Control experiments were performed administrating the vehicle only. […] KCNK channels regulate neuronal excitability by regulating membrane potential, input resistance and synaptic gain (see, e.g., Taverna S, et al., 2005, J Neurosci Oct. 5; 25(40):9162-70; Meuth S G, et al., 2003 J Neurosci. Jul. 23; 23(16):6460-9; each herein incorporated by reference in their entireties).
# [3] = tested on: voltage-gated sodium channels of hippocampal CA1 pyramidal neurons; test: Voltage-clamp nucleated patch recordings of voltage-gated sodium currents in CA1 pyramidal cells; type: cell-based, rat
# Method: To study the gating properties of the sodium channels, voltage-clamp recordings were performed in the nucleated patch configuration, which allows almost ideal voltage clamp, even for fast sodium currents (28). Recordings were performed at 24-25° C. using an Axopatch 200B (Axon Instruments) patch-clamp amplifier. Data were sampled at 20 kHz and filtered at 10 kHz. Patch pipettes had resistance of 2.5-4 MΩ (in working solution) and were pulled from Corning #0010 lead glass (WPI) or borosilicate 0.4 mm-walled glass (Dagan). The internal solution was CsCl-based and contained: 140 mM CsCl, 10 mM NaCl, 2 mM MgCl2, 10 mM EGTA, 2 mM Na2ATP, 0.1 mM NaGTP, 10 mM HEPES 10, pH 7.3 with CsOH.
# Capacitive transients were reduced by wrapping the pipettes in parafilm and compensated using the fast compensation circuitry of the amplifier. The whole-cell configuration was obtained and the pyramidal identity of cells was quickly confirmed by presence of a sag in the membrane potential in response to a hyperpolarizing current injection. The pipette was then slowly withdrawn while applying a constant negative pressure (−90 to −130 mbar). After excision, patches were held at −90 mV with a small pressure (−15 to −20 mbar). Sodium currents were then obtained by offline digital subtraction of traces in TTX from control traces.
# Drugs were applied to the patches by using a multi-barrel system consisting of 4 glass capillaries (1.5 mm ID) glued together and connected to a syringe pump (WPIL). The patch-pipette carrying the nucleated patch was inserted into each of the pipes, each containing a different extracellular solution. The system ensures that the solution speed is the same in each barrel. For these recordings, the extracellular solution consisted of HEPES-buffered ACSF: 138 mM NaCl, 10 mM HEPES, 2.5 mM KCl, 2 mM CaCl2, 1 mM MgCl2 and 25 mM glucose (pH 7.3), 50 μM CdCl2, 10 mM TEA, and the drugs of interest.
# The voltage-dependence of activation was fit with a Boltzmann function f(V)=1/(1+exp(−(V−V1/2)/k)) raised to the third power, where V1/2 is the voltage at which the activation is half-maximal, and k is the slope factor. The voltage-dependence of inactivation was similarly determined using a Boltzmann function, f(V)=1/(1+exp ((V−V1/2)/k)). The time course of recovery from inactivation was fit with a bi-exponential equation of the form, f(t)=1-(A1 exp(−t/τ) +A2 exp(−t/τ2)), yielding two time constants (τ) and relative contribution (A).
# Voltage-gated sodium currents were recorded in nucleated patches from CA1 pyramidal cells from 11- to 20-day-old rats. FFA was tested at 0.2 mM, a concentration similar to that used as Ican blocker (0.5 mM, (32) and as two-pore potassium channels opener (0.1 mM, (40)).
# The effect of FFA on the amplitude of sodium currents recorded in nucleated patches was investigated using a 30 ms step (to 10 mV) from −70 mV (close to the resting potential of hippocampal pyramidal neurons). 200 μM FFA blocked 34% of the sodium current (FIG. 7). The mechanism of action of FFA on sodium channels was characterized in detail. Even with a cesium-based intracellular solution and in the presence of extracellular TEA and cadmium some contaminating currents could often still be detected in pyramidal cell nucleated patches; therefore analysis was performed on TTX-subtracted traces only. TTX-sensitive current data for the control and the FFA were obtained from different patches.
# [4] = tested on: epileptiform discharges in 4AP treated rat hippocampal slices; test: 4AP-induced epileptiform discharges, extracellular recordings from the CA1 area of hippocampal slices; type: cell-based
# Method: A, extracellular recordings from the CA1 area of a rat hippocampal slices in which epileptic-like activity was induced by bath application of 4AP (50 μM). […] B, in another 4AP treated slice, the effects of different concentrations of FFA were tested.
# Similar pathophysiologies exist for epilepsy and various chronic pain disorders (see, e.g., Pappagallo M (2003) Clin Ther. 25:2506-38; herein incorporated by reference in its entirety). […] Epileptic discharges were induced in a slice of rodent hippocampal tissue by bath application of the voltage-gated potassium channel blocker 4-aminopyridine (4AP) (see, e.g., Lopantsev V, Avoli M. (1998) J Physiol. 509:785-96; Brückner C, et al., Neurosci Lett. 268:163-5; each herein incorporated by reference in their entireties). […] The effect of flufenamic acid on hippocampal neurons, for example, involves induction of neuronal hyperpolarization by activating a background potassium conductance, and a reduction of neuronal excitability by inhibition of the voltage-gated sodium current.
# Hippocampal brain slices: 11- to 20-day-old Long-Evans rats were anesthetized with isoflurane and killed by decapitation. The brain was removed from the skull in ice-cold artificial cerebrospinal fluid (ACSF), containing: 125 mM NaCl, 25 mM NaHCO3, 2.5 mM KCl, 1.25 mM NaH2PO4, 1.8 mM CaCl2, 1 mM MgCl2 and 2 mM 5 glucose, bubbled with 95% O2 and 5% CO2 (pH 7.4). Transverse hippocampal slices (300 μm thick) were cut using a vibroslicer (Dosaka) and stored in a solution containing: 87 mM NaCl, 25 mM NaHCO3, 2.5 mM KCl, 1.25 mM NaH2PO4, 0.5 mM CaCl2, 7 mM MgCl2, 75 mM sucrose and 25 mM glucose, bubbled with 95% O2 and 5% CO2; slices were kept at 35° C. for 15-20 minutes and subsequently at 24-25° C.
# [5] = FIG. 5: 100 ms pre-pulses, 30 ms test pulse to 0 mV, 2 nucleated patches
smiles,measurement,setting,value
"O=C(O)c1ccccc1Nc1cccc(C(F)(F)F)c1 [FFA, 2-[[3-(trifluoromethyl)phenyl]amino]benzoic acid]",firing frequency,"[1]; 150 pA, 1 s depolarizing current pulse, kynurenic acid and picrotoxin",1.87±0.61 Hz
same,effect on number of action potentials / repetitive firing,[1]; 1 s-long depolarizing current injection,strongly decreased the number of action potentials; also recorded: effectively decreases repetitive firing
same,effect on spikes and burst firing,"[2]; 4-AP slice epilepsy model, bath application of FFA",dramatically reduced both the total number of spikes and bursting; also recorded: completely abolishes burst firing
same,interspike interval (ISI) ratio,"[2]; 120 pA current injection, 4-AP, FFA 0.2 mM",0.74±0.06
same,analgesic effect,SNI rats,rapid and potent analgesic effect
same,analgesic effect,SNI rats; listed as flufenamic acid,potent analgesic effect
same,increase of Von Frey threshold on the injured paw,"SNI rats; 10 mg/kg oral administration, operated paw",more than 10 times
same,effect on pain threshold,SNI rats,significantly increased the pain threshold in the non-operative paw
same,effect on pain threshold,SNI rats; listed as flufenamic acid,increased pain threshold in both paws
same,Na+ channel activation slope factor (k/3),[3]; 200 μM FFA,5.6±0.27 mV
same,block of the sodium current,"[3]; 200 μM FFA, 30 ms step from −70 mV",34%
same,mean peak Na+ current amplitude,"[3]; 200 μM FFA, 50 ms prepulse to −70 mV, test pulse to −10 mV, 15 nucleated patches",−183.6±21.7 pA
same,Na+ channel activation mid-point potential,"[3]; 200 μM FFA, Boltzmann raised to third power",−11.3±1.36 mV
same,shift in voltage dependence of inactivation,[3]; 50 ms prepulse,~12 mV
same,steady-state inactivation mid-point potential,"[3]; 50 ms prepulse, in FFA",−67.8±1.4 mV
same,steady-state inactivation slope factor,"[3]; 50 ms prepulse, in FFA",10.7±0.5 mV
same,steady-state inactivation mid-point potential,"[3]; 200 ms prepulse, in FFA",−74.1±2.6 mV
same,steady-state inactivation slope factor,"[3]; 200 ms prepulse, in FFA",8.9±1.0 mV
same,sodium channel inactivation Boltzmann function half point,[3]; [5],−89.7 mV
same,sodium channel inactivation Boltzmann slope,[3]; [5],9.1 mV
same,time constant of inactivation onset,"[3]; at 0 mV, in FFA (0.2 mM)",0.70 ± 0.03 ms
same,fraction of sodium channels available for activation,"[3]; at −70 mV, in FFA",0.57±0.04
same,effect on the sodium channel activation curve,[3]; hippocampal pyramidal neurons,No significant effect; also recorded: only minimal effect
same,effect on epileptiform discharges,"[4]; 50 μM FFA, 4AP treated slice",small reduction in the amplitude of individual events
same,effect on epileptiform discharges,"[4]; 100 μM FFA, 4AP treated slice",strongly reduced the discharge frequency
same,effect on epileptiform discharges,"[4]; 200 μM FFA, 4AP 50 μM",completely and reversibly inhibited the epileptiform discharges; also recorded: completely abolished the discharges
same,"antiepileptic effect, concentration dependence","[4]; 4AP treated slices, 50-200 μM","clear dose-dependent effect; also recorded: potent, concentration dependent, antiepileptic effect"
